Test system: pancreatin (Panzytrat 40,000)
Assay: Cleavage experiments with pancreatin in water, followed by acid number
Conditions: individual esters in pure form, 50° C.
Method: The pancreatin is used in the form of the commercially available product Panzytrat® 40,000 from the Allergan company. The whole mixture is stirred on a hot plate at 50° C.; the course of the reaction is determined and monitored by continuously recording the acid number over time.

Substance: 3-hydroxybutyric acid di-diglycerol ester
- cleavage by pancreatin to free 3-hydroxybutyric acid (3-BHB-FS): cleaved by pancreatin to the free 3-hydroxybutyric acid

Substance: 3-hydroxybutyric acid mono-diglycerol ester
- cleavage by pancreatin to free 3-hydroxybutyric acid (3-BHB-FS): cleaved by pancreatin to the free 3-hydroxybutyric acid

Substance: 3-hydroxybutyric acid tri-diglycerol ester
- cleavage by pancreatin to free 3-hydroxybutyric acid (3-BHB-FS): cleaved by pancreatin to the free 3-hydroxybutyric acid

Reference: US20230020342A1, “METHOD FOR PRODUCING POLYOL-BASED ESTERS, IN PARTICULAR POLYGLYCEROL ESTERS, FROM HYDROXY CARBOXYLIC ACIDS” (IOI Oleo GmbH, priority 2019, published 2023)
